Test results from patent US20190358182A1, “NOVEL MECHANISM FOR DECREASING OPIOID REWARD” (THE TRUSTEES OF INDIANA UNIVERSITY, priority 2018, published 2019).
“Also recorded” adds a separate entry of the source.

Tests used:
rats [1] = test: Morphine self-administration, FR1 schedule (preliminary study); format: in vivo, rat; conditions: morphine 0.1 mg/kg/injection
rats [2] = conditions: for conditioned place preference to morphine on coadministration: inhibitor 10 mg/kg i.p. × 4 pairings with morphine 6 mg/kg i.p., FIG. 4E, 4F
rats [3] = test: Single trial conditioned place preference (CPP); format: in vivo, rat; conditions: for single trial CPP to the inhibitor alone: acute treatment alone, data not shown; for single trial morphine-induced CPP on acute co-treatment: rats, FIG. 3B, 3C
Text: FIGS. 3A-3C present data from a conditioned place preference study where one chamber was paired with the drug treatment and the other chamber was paired with the vehicle. Animals are subsequently tested in the drug free state to determine if the drug pairing produced reward or aversion in the animals.

PSD95-nNOS [4] = target: T1, PSD95-nNOS (Homo sapiens, UniProt P29475+P78352); conditions: as described for the control compound; cited from earlier work
T1 sequence (P78352 whole entry): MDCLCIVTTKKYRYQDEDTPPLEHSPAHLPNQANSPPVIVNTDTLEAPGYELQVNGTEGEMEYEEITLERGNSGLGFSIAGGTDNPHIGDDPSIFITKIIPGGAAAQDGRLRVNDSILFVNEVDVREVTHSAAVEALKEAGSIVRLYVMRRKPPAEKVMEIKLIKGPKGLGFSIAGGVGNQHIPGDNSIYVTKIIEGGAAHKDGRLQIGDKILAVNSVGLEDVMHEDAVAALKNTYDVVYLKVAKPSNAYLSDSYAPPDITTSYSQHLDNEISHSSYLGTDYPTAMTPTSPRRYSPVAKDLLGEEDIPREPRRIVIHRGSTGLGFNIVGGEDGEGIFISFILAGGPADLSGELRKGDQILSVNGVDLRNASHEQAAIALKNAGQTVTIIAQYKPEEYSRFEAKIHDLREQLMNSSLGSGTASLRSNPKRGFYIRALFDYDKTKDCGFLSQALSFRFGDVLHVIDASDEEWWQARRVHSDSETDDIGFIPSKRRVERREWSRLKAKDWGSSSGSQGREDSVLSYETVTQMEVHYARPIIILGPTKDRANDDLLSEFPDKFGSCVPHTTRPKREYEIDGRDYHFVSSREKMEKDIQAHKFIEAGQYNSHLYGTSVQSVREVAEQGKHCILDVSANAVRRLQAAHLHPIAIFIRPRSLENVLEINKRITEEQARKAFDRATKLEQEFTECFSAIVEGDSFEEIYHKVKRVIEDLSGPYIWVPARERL
T1 sequence (P29475 whole entry): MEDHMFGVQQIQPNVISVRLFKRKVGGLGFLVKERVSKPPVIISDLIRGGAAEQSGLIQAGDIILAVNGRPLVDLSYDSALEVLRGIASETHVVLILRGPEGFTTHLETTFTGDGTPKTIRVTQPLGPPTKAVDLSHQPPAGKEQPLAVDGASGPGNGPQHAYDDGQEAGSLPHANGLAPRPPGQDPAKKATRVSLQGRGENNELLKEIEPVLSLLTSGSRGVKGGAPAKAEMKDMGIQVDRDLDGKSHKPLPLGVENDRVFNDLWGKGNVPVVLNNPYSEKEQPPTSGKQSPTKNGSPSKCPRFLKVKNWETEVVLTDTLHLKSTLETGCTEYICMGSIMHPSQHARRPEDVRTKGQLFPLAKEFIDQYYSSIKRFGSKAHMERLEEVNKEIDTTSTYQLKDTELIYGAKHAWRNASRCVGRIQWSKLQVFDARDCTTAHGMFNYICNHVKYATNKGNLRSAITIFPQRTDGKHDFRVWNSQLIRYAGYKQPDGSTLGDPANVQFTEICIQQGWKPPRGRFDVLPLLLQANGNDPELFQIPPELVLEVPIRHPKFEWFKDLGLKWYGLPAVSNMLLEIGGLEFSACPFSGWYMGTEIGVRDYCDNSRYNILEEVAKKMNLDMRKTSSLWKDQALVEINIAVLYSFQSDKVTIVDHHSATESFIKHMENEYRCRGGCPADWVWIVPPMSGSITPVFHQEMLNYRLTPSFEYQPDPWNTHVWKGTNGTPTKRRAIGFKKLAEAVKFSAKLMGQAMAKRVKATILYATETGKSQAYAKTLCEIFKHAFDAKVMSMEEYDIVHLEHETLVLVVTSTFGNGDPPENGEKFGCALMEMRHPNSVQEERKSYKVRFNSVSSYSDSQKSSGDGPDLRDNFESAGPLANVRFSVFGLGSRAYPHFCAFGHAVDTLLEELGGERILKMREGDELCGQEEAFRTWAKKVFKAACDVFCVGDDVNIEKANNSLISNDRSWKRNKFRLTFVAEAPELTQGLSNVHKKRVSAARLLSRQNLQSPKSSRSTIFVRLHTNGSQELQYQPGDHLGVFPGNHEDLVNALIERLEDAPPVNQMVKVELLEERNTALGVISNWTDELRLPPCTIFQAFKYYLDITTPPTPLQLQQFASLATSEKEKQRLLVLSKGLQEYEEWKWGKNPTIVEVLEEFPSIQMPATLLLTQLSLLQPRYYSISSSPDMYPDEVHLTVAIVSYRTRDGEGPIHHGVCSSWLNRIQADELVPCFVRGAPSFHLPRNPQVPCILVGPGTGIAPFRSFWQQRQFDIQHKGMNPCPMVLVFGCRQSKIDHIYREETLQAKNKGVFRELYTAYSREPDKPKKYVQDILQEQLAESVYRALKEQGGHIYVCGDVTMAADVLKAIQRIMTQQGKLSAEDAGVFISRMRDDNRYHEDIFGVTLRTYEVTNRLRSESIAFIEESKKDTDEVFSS

nNOS with PSD95 = target: T2, nNOS with PSD95 (Mus musculus, UniProt Q62108+Q9Z0J4); conditions: WT but not nNOS −/− mice; cited from earlier work
T2 construct: host or cells: ischemic cortex of wild-type mice
T2 sequence (Q9Z0J4 whole entry): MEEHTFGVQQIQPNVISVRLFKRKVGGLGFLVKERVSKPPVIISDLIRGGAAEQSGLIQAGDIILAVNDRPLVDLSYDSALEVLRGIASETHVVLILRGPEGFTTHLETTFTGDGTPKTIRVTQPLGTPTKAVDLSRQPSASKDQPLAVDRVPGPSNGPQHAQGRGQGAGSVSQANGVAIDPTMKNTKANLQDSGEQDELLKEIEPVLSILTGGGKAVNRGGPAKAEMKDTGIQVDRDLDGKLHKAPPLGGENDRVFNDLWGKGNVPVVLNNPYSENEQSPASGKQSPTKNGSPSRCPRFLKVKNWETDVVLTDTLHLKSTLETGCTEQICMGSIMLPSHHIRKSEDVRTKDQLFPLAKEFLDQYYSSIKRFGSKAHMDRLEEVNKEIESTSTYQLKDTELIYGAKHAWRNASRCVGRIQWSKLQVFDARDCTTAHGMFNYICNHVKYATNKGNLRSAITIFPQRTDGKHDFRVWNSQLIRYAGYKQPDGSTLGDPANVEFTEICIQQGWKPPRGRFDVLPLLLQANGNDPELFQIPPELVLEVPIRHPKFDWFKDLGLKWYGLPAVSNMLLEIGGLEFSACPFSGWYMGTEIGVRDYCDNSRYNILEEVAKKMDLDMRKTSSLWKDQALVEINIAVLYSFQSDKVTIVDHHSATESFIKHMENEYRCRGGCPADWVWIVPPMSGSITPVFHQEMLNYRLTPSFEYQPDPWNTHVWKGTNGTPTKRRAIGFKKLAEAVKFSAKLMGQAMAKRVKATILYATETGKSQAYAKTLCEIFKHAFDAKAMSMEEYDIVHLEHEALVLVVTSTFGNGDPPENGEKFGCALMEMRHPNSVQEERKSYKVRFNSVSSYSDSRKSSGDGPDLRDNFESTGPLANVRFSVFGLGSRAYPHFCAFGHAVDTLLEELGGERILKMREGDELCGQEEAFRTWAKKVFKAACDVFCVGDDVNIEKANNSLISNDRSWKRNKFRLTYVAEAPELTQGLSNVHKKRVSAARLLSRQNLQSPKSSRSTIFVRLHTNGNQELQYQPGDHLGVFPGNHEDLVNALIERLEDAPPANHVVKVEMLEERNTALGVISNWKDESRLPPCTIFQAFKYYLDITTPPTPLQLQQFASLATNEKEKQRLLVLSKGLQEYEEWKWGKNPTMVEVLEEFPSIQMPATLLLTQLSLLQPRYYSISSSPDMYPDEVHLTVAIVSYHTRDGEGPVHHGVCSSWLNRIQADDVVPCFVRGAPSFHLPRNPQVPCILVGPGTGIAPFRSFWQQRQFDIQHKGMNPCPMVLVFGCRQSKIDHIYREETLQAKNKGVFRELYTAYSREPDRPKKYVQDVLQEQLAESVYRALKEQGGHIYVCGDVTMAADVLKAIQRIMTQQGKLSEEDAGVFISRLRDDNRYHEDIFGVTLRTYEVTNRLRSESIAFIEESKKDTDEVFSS
T2 sequence (Q62108 whole entry): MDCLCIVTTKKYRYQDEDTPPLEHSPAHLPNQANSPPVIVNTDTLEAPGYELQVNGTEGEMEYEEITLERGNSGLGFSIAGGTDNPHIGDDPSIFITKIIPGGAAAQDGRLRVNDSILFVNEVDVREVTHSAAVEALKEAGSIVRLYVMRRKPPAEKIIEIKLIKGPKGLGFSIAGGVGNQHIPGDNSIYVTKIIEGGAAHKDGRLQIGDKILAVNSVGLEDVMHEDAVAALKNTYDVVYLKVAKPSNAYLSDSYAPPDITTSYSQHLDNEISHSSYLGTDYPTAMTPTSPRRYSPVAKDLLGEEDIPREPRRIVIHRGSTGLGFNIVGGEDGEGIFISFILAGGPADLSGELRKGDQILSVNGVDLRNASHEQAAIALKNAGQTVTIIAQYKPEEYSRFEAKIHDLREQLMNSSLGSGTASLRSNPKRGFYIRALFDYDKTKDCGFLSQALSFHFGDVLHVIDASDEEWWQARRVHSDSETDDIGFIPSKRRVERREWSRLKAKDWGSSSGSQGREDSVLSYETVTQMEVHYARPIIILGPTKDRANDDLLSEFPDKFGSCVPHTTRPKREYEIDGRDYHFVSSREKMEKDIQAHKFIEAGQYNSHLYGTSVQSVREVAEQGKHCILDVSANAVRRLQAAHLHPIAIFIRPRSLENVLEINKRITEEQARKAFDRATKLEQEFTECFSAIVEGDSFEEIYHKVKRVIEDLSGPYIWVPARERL

[5] = tested on: NMDA-induced NO formation; test: NMDA-induced NO formation / cGMP levels in primary hippocampal cultures; format: cell-based; conditions: for NMDA-induced NO formation: data not shown, Smith et al. (2016); for NMDA-stimulated cGMP levels: primary hippocampal cultures, published in Smith et al. (2016)
DA efflux in NAc shell = test: Fast-scan cyclic voltammetry of electrically evoked DA in NAc shell; format: in vivo, rat
Text: Design and Rationale: Although FSCV can record spontaneously occurring DA transients in behaving animals, the anesthetized preparation is preferred because it provides reliable and reproducible DA signals independent of behavioral activity. In fact, the fluctuating and intermittent nature of behavior-related DA signals (e.g.,) could confound efforts to establish a first-ever characterization of PSD95-nNOS disrupters on DA dynamics. […] Rats are fixed in a stereotaxic frame, and a carbon-fiber working electrode (6 μm diameter) is lowered into NAc shell. A bipolar stimulating electrode is lowered over the ipsilateral MFB to evoke endogenous DA release. An Ag/AgCl reference is placed on the contralateral cortex. […] Voltammograms are obtained every 100 ms at a scan rate of 400 v/s.
The basic design is to collect baseline DA signals (30 min) evoked by MFB stimulation, administer (ip) test drug(s) or vehicle, and collect post-administration evoked DA signals. […] The effects of each compound (injected i.p.) will be monitored for at least 60 min and tested in separate groups of rats (n=10/group). […] To evoke DA release, we apply a biphasic current (60 Hz, 0.4 s, 300 μA) to the stimulating electrode.
Stimulations at 60 Hz are applied every 2 min to ensure renewal of the readily releasable DA pool. Evoked signals are resolved into respective rates for release and uptake, and pre- and postdrug data are compared. Upon completion of recording, the working electrode is used for postcalibration testing to estimate the in vivo concentration of DA. The analysis used to assess changes in DA release and uptake involves a modification of Michaelis-Menten kinetics. We use mathematical modeling that describes the rate of change in evoked DA concentration as the counteracting balance of release and reuptake: d[DA]/dt=[DA]p*f−Vmax/(Km/[DA]+1), where [DA] is the extracellular DA concentration, [DA]p refers to the extracellular DA concentration evoked per stimulus pulse, Vmax represents the Michaelis-Menten term for maximal uptake rate, Km is the Michaelis-Menten term inversely proportional to transporter affinity, and f is the frequency of the stimulation train. Thus, both Km and Vmax are Michaelis-Menten rate constants that describe uptake (see FIG. 7B). [DA]p describes the rate of stimulated release. Km is held constant at a 0.2 μM, the reported value in striatum for anesthetized rodents. [DA]p and Vmax are determined by the above equation in combination with curve-fitting software that incorporates a simplex minimization algorithm.

rats [6] = test: Radial arm maze task for source and spatial working memory; conditions: MK801 0.1 or 0.2 mg/kg i.p., IC87201 and ZL006 10 mg/kg i.p., 30 min after injection
Protocol: Rats were trained in a radial arm maze task that tests both source and spatial working memory for these experiments. Data are average of three trials 30 min after drug injection (n=6/group).
Memory impairment can confound CPP studies that depend on learning. Experiments were conducted to determine whether PSD95-nNOS inhibitors impair normal memory functions or show favorable side effect profiles compared to NMDAR antagonist MK801. We used a highly sensitive “source memory” task developed by applicants for use in rats to better mimic types of memory that are actually impaired in humans.

mice = conditions: wild type (WT) but not nNOS −/− mice; cited from earlier work
PSD95-nNOS [7] = target: T1, PSD95-nNOS; test: Alphascreen in vitro assay of PSD95-nNOS binding (purified proteins); conditions: purified nNOS and PSD95 proteins, FIG. 2
Text: Mechanism: We developed an in vitro assay using Alphascreen to establish whether IC87201 and ZL006 directly disrupt interactions between purified nNOS and PSD95 proteins. […] A later group identified ZL006.

[8] = Novel object recognition test; format: in vivo; conditions: data not shown
PSD95-ERB4 = PSD95-ERB4 (Homo sapiens, UniProt P78352); test: Alphascreen, interaction of PSD95 with unrelated proteins; format: binding; conditions: FIG. 2
PSD95-ERB4, sequence (P78352 whole entry): as the sequence (P78352 whole entry) above

[9] = cited from earlier work; for pain hypersensitivity / pathological pain: chronic pain models; for nociceptive responding / basal nociceptive thresholds without injury: naïve animals, absence of injury
Rota-rod test = format: in vivo; conditions: 10-30 mg/kg i.p., FIG. 5B
Morris Water maze = format: in vivo; conditions: FIG. 5A
rats [10] = conditions: cited from earlier work

CN1CC[C@]23c4c5ccc(O)c4O[C@H]2[C@@H](O)C=C[C@H]3[C@H]1C5 [morphine, reference compound]
active versus inactive lever presses in self-administration (rats [1]; FR1, naïve, sham and neuropathic rats): Active lever presses were greater than inactive presses in all groups
mechanical thresholds (rats [1]; naïve rats, FIG. 6A): did not alter mechanical thresholds
conditioned place preference to morphine, repeated pairings (rats [2]; morphine 6 or 10 mg/kg i.p. × 4 pairings, FIG. 4C, 4D): produced robust conditioned place preference
single trial CPP to the drug alone (morphine) (rats [3]; naïve rats, morphine 6 mg/kg i.p., FIG. 3A): robust single trial CPP

O=C(O)c1cc(NCc2cc(Cl)cc(Cl)c2O)ccc1O [ZL007, reference compound]
disruption of PSD95-nNOS interactions by the inactive analog (PSD95-nNOS [4]): does not disrupt PSD95-nNOS interactions

O=C(O)c1ccc(NCc2cc(Cl)cc(Cl)c2O)cc1O [ZL006]
association of nNOS with PSD95 in ischemic cortices (nNOS with PSD95): inhibits the association of nNOS with PSD95 in ischemic cortices
NMDA-induced NO formation [5]: inhibit NMDA-induced NO formation
NMDA-stimulated cGMP levels [5]: suppressed NMDA-stimulated cGMP levels
morphine-induced dopamine efflux on co-administration (DA efflux in NAc shell; ZL006 10 mg/kg i.p. with morphine 6 mg/kg i.p., NAc shell, FIG. 8C): blocked the morphine-induced increase in evoked DA in NAc shell; also recorded: suppresses morphine-induced dopamine efflux in nucleus accumbens shell
amount of DA released per stimulus pulse (DA efflux in NAc shell; ZL006 10 mg/kg i.p., FIG. 7C): does not affect the amount of DA released per stimulus pulse
amount of DA uptake per stimulus pulse (DA efflux in NAc shell; ZL006 10 mg/kg i.p., FIG. 7D): does not affect the amount of DA uptake per stimulus pulse
evoked DA response before and 30 min after drug (DA efflux in NAc shell; ZL006 10 mg/kg i.p., anesthetized rat, FIG. 8B, pilot data, 10 mg/kg): clear decrease in DA signal within 30 min; also recorded: decrease in DA evoked response
evoked dopamine (DA) efflux, drug alone (DA efflux in NAc shell; medial forebrain bundle stimulation, morphine 6 mg/kg i.p., ZL006 10 mg/kg i.p., FIG. 7A, 7B): does not increase dopamine (DA) efflux
source memory (rats [6]): failed to impair spatial memory or source memory
spatial working memory (rats [6]): failed to impair spatial memory or source memory
ischemia induced damage (mice): inhibits ischemia induced damage
disruption of PSD95-nNOS interaction / binding (PSD95-nNOS [7]): disrupt PSD95-nNOS; also recorded: inhibited PSD95-nNOS binding
conditioned place preference to morphine on coadministration (rats [2]): conditioned place preference to morphine was no longer observed
memory in the novel object recognition test [8]: did not impair memory
disruption of unrelated PSD95-ERB4 interactions (PSD95-ERB4): not unrelated PSD95-ERB4 interactions; also recorded: without disrupting interaction of PSD95 with unrelated proteins
single trial CPP to the inhibitor alone (rats [3]): failed to do so
single trial morphine-induced CPP on acute co-treatment (rats [3]; morphine 6 mg/kg i.p.): blocked
pain hypersensitivity / pathological pain [9]: suppress pain hypersensitivity
nociceptive responding / basal nociceptive thresholds without injury [9]: without altering nociceptive responding
motor performance in the rota-rod test (Rota-rod test): did not impair
memory in the Morris Water maze (Morris Water maze): do not impair memory

N=C(N)NCCC[C@H](N)C(=O)O [L-arginine]
acquisition of CPP to morphine (rats [10]; NO donor in the central amygdala): increased acquisition of CPP to morphine

Oc1c(Cl)cc(Cl)cc1CNc1ccc2[nH]nnc2c1 [IC87201]
NMDA-induced NO formation [5]: inhibit NMDA-induced NO formation
NMDA-stimulated cGMP levels [5]: suppressed NMDA-stimulated cGMP levels
source memory (rats [6]): failed to impair spatial memory or source memory
spatial working memory (rats [6]): failed to impair spatial memory or source memory
disruption of PSD95-nNOS interaction / binding (PSD95-nNOS [7]): disrupt PSD95-nNOS; also recorded: inhibited PSD95-nNOS binding
conditioned place preference to morphine on coadministration (rats [2]): conditioned place preference to morphine was no longer observed
memory in the novel object recognition test [8]: did not impair memory
disruption of unrelated PSD95-ERB4 interactions (PSD95-ERB4): not unrelated PSD95-ERB4 interactions; also recorded: without disrupting interaction of PSD95 with unrelated proteins
single trial CPP to the inhibitor alone (rats [3]): failed to do so
single trial morphine-induced CPP on acute co-treatment (rats [3]; morphine 6 mg/kg i.p.): blocked
pain hypersensitivity / pathological pain [9]: suppress pain hypersensitivity; also recorded: suppresses pathological pain
nociceptive responding / basal nociceptive thresholds without injury [9]: without altering nociceptive responding; also recorded: without altering basal nociceptive thresholds
motor performance in the rota-rod test (Rota-rod test): did not impair
memory in the Morris Water maze (Morris Water maze): do not impair memory

C[C@]12N[C@H](Cc3ccccc31)c1ccccc12 [MK801, reference compound]
NMDA-stimulated cGMP levels [5]: suppressed NMDA-stimulated cGMP levels
source memory (rats [6]): eliminated (i.e. did not differ from chance)
spatial working memory (rats [6]): unaffected
morphine-induced CPP (rats [10]; rats, MK801 0.1 mg/kg i.p., doses that do not alter chamber preference): blocked

COC(=O)[C@@H](N)CCCNC(=N)N[N+](=O)[O-] [L-NAME]
L-arginine enhancement of acquisition of CPP to morphine (rats [10]; NOS inhibitor): this enhancement was blocked
